In test [1] the test system is human premyeloblast leukemia cells (HL-60). The test can be described thus: NBT reduction (differentiation of HL-60 cells into macrophages). Type of test: cell-based. The settings on record: HL-60, 4 days, control 0.5. As to the method:
Thereafter, the cells were smeared onto a slide glass, subjected to Giemsa staining, and the coloration of the cells was examined under a microscope. The number of cells containing intracellular blue-black formazan deposits was measured for 200 cells, and the results were expressed in terms of the percentage of NBT reduction-positive cells.

For test [2], the system named is vitamin D-deficient rats. The experiment in a line: Bone calcium mobilization response (serum calcium, OCPC method) in vitamin D-deficient rats. As to conditions: intrajugular, 24 hours after administration, Mean ± SD (N = 4 ~ 6). The class given is in vivo. As to the method:
Blood was collected after 24 hours, and the concentration of calcium in serum was determined by the OCPC (orthocresolphthalein complexon) method.

The subject of test [3] is human premyeloblast leukemia cells (HL-60). The experiment in a line: Proliferation-suppression rate of HL-60 cells (Coulter counter, 4 days cultivation). Type of test: cell-based. The settings on record: 96 h, HL-60, 4 days; for inhibition at 0.1 ng/mL: Concn. 0.1 ng/mL; for inhibition at 1 ng/mL: Concn. 1 ng/mL; for inhibition at 10 ng/mL: Concn. 10 ng/mL. As for the experimental part:
An HL-60 cell fluid adjusted to a concentration of 5 x 10^4 cells/ml was incorporated with each of the agents to be tested and cultivated in a carbon dioxide incubator at 37°C for 4 days. After the cultivation, the number of cells was measured by means of a Coulter counter. The percentage of the number thus measured relative to the number of cells in an untreated group was calculated, from which the proliferation-suppression rate was obtained.

Test [4] deals with vitamin D-deficient rats. The test can be described thus: Intestinal calcium transport response (method of Martin and DeLuca) in vitamin D-deficient rats. The class given is in vivo. The settings on record: intrajugular, 24 hours after administration, Mean ± SD (N = 4 ~ 6).
Where [5] appears, read: dose 50 pmol/100 g body wt., control 4.8 ± 0.29.
The mark [6] stands for this setting: dose 650 pmol/100 g body wt., control 4.8 ± 0.31.
[7] abbreviates: dose 50 pmol/100 g body wt., control 2.6 ± 0.27.
[8] abbreviates: dose 650 pmol/100 g body wt., control 2.5 ± 0.30.

Results on 6 compounds are retold here after patent EP0250755A2, “Fluorine derivatives of vitamin D3 and process for producing the same” (SUMITOMO PHARMACEUTICALS COMPANY, LIMITED, priority 1986, dated 1988).

For the compound `C=C1/C(=C\C=C2/CCC[C@]3(C)[C@@H]([C@H](C)CCCC(C)(C)O)CC[C@@H]23)C[C@@H](O)C[C@@H]1O` [1α,25-(OH)2D3, 1α,25-Dihydroxyvitamin D3, reference compound], the results for the NBT reduction rate in test [1] (Concn. 0.1 µg/ml), in test [1] (Concn. 1 µg/ml) and in test [1] (Concn. 10 µg/ml) were 1.0%, 16.5% and 56.5%, respectively. Further, the Serum calcium in the test with vitamin D-deficient rats [2] (setting [5]) was 5.5 ± 0.30 mg/100 ml; in the test with vitamin D-deficient rats [2] (setting [6]), 8.5 ± 0.59 mg/100 ml. Moreover, the inhibition (in general, the percentage by which the read-out fell short of the control) at 0.1 ng/mL in test [3] stood at 6.2%. In test [3], this compound registered an inhibition at 1 ng/mL of 36.1%. Also, in test [3], testing at 10 ng/mL gave an inhibition of 72.4%. Also, the results for the “Intestinal calcium transport (Ca [S/M])” value in the test with vitamin D-deficient rats [4] (setting [7]) and with vitamin D-deficient rats [4] (setting [8]) were 3.4 ± 0.72 Ca [S/M] and 3.6 ± 0.52 Ca [S/M], respectively.

For `C=C1/C(=C\C=C2/CCC[C@]3(C)[C@@H]([C@H](C)CC[C@H](O)C(O)(C(F)(F)F)C(F)(F)F)CC[C@@H]23)C[C@@H](O)C[C@@H]1O` [Compound 6a, 24(S)-26,26,26,27,27,27-hexa-fluoro-la,24,25-trihydroxyvitamin D3], the NBT reduction rate in test [1] (Concn. 0.1 µg/ml) turned out to be 8.0%; in test [1] (Concn. 1 µg/ml) it was 55.0%; in test [1] (Concn. 10 µg/ml) it was 86.0%. Moreover, the inhibition at 0.1 ng/mL in test [3] stood at 30.7%. Besides, the inhibition at 1 ng/mL in test [3] is 74.9%. For the same compound, the inhibition at 10 ng/mL in test [3] was 83.7%.

As to `C=C1/C(=C\C=C2/CCC[C@]3(C)[C@@H]([C@H](C)CC[C@@H](O)C(O)(C(F)(F)F)C(F)(F)F)CC[C@@H]23)C[C@@H](O)C[C@@H]1O` [Compound 6b, 24(R)-26,26,26,27,27,27-hexafluoro-1α,24,25-trihydroxyvitamin-D3], the NBT reduction rate in test [1] (Concn. 0.1 µg/ml) came to 32.0%; in test [1] (Concn. 1 µg/ml), 79.5%; in test [1] (Concn. 10 µg/ml) it was 83.5%. Also, in the test on vitamin D-deficient rats [2] (setting [5]), the Serum calcium was 6.3 ± 0.55 mg/100 ml. In test [3], this compound yielded an inhibition at 0.1 ng/mL of 50.2%. 1 ng/mL produced 84.7% inhibition in test [3]. This compound had an inhibition at 10 ng/mL in test [3] of 90.4%. For the same compound, the “Intestinal calcium transport (Ca [S/M])” value in the test on vitamin D-deficient rats [4] (setting [7]) was found to be 8.9 ± 2.81 Ca [S/M].

Consider `C=C1/C(=C\C=C2/CCC[C@]3(C)[C@@H]([C@H](C)CCC(=O)C(O)(C(F)(F)F)C(F)(F)F)CC[C@@H]23)C[C@@H](O)C[C@@H]1O` [Compound 10, la,25-dihydroxy-26,26,26,27,27,27-hexafluoro-24-oxovitamin D3], for which the NBT reduction rate in test [1] (Concn. 0.1 µg/ml) is 12.5%; in test [1] (Concn. 1 µg/ml), 46.0%; in test [1] (Concn. 10 µg/ml), 82.5%. Moreover, the Serum calcium with vitamin D-deficient rats [2] (setting [5]) was found to be 6.5 ± 0.40 mg/100 ml. This compound displayed an inhibition at 0.1 ng/mL in test [3] of 45.9%. In test [3], this compound yielded an inhibition at 1 ng/mL of 78.6%. In test [3], this compound displayed an inhibition at 10 ng/mL of 89.9%. In addition, the “Intestinal calcium transport (Ca [S/M])” value with vitamin D-deficient rats [4] (setting [7]) turned out to be 6.5 ± 1.92 Ca [S/M].

In test [1] (Concn. 0.1 µg/ml), `C=C1/C(=C\C=C2/CCC[C@]3(C)[C@@H]([C@H](C)C[C@@H](O)CC(O)(C(F)(F)F)C(F)(F)F)CC[C@@H]23)C[C@@H](O)C[C@@H]1O` [Compound 28a, 23(R)-26,26,26,27,27,27-hexa-fluoro-1α,23,25-trihydroxyvitamin D3] registered an NBT reduction rate of 6.5%. This compound also registered an NBT reduction rate in test [1] (Concn. 1 µg/ml) of 60.5%. Moreover, the NBT reduction rate in test [1] (Concn. 10 µg/ml) is on record as 80.0%. Also, the Serum calcium in the test on vitamin D-deficient rats [2] (setting [6]) is 7.2 ± 0.67 mg/100 ml. In test [3], this compound showed an inhibition at 0.1 ng/mL of 19.8%, an inhibition at 1 ng/mL of 76.4% and an inhibition at 10 ng/mL of 92.2%. The “Intestinal calcium transport (Ca [S/M])” value in the test on vitamin D-deficient rats [4] (setting [8]) turned out to be 6.3 ± 1.88 Ca [S/M].

In the case of `C=C1/C(=C\C=C2/CCC[C@]3(C)[C@@H]([C@H](C)C[C@H](O)CC(O)(C(F)(F)F)C(F)(F)F)CC[C@@H]23)C[C@@H](O)C[C@@H]1O` [Compound 28b, 23(S)-26,26,26,27,27,27-hexa-fluoro-1α,23,25-trihydroxyvitamin D3], the values for the NBT reduction rate in test [1] (Concn. 0.1 µg/ml), in test [1] (Concn. 1 µg/ml) and in test [1] (Concn. 10 µg/ml) were 2.0%, 60.0% and 81.0%, respectively. Moreover, the Serum calcium in the test on vitamin D-deficient rats [2] (setting [6]) is reported as 5.6 ± 0.60 mg/100 ml. The compound further showed an inhibition at 0.1 ng/mL in test [3] of 22.8%. The inhibition at 1 ng/mL in test [3] turned out to be 67.3%. At 10 ng/mL the inhibition in test [3] was 86.9%. Also, the “Intestinal calcium transport (Ca [S/M])” value with vitamin D-deficient rats [4] (setting [8]) is 5.7 ± 1.92 Ca [S/M].
